The subject of data set [1] is HL-60. The data set is described as follows: Induction of ROS generation in human HL60 cells at 1.5 uM after 24 hrs in presence of antioxidant DTT by DCFH-DA staining-based flow cytometry. Type of data set: functional, cell-based. (A flow cytometer gives signals particle by particle.)
Data set [2] deals with T1, Glutathione reductase, mitochondrial (Homo sapiens) (UniProt P00390).
T1 sequence (whole entry): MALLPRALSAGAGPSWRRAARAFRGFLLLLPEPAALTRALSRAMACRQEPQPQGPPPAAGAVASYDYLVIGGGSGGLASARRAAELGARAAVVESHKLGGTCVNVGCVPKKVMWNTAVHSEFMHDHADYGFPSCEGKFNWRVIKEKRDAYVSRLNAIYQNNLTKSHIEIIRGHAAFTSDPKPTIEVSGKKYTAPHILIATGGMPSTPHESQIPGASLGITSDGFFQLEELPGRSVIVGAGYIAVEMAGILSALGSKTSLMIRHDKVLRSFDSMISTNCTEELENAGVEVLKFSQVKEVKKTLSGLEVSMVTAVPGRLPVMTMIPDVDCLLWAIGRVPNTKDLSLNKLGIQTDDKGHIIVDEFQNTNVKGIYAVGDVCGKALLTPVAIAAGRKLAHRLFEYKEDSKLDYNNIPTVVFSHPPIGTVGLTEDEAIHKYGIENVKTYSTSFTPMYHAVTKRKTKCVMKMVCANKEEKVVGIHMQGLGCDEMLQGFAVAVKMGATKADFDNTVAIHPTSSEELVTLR
The data set is described as follows: Effect on glutathione reductase catalytic activity in human HL60 cells. Format: cell-based.

For data set [3], the system named is HL-60. The data set can be described thus: Induction of mitochondrial membrane potential loss in human HL60 cells at 1.5 uM after 24 hrs by JC-1 staining-based flow cytometry (reference value: 28.6%). Format: functional.
Data set [4] deals with HL-60. The data set is described as follows: Induction of cell death in human HL60 cells at 1 to 1.5 uM after 24 hrs in presence of antioxidant NAC by trypan blue assay. Format: functional, cell-based.
For data set [5], the system named is HL-60. The data set is described as follows: Cytotoxicity against human HL60 cells by MTT assay. The settings on record: TDE = time-dependent effect. Format: functional, cell-based. (Tetrazolium dyes change colour on reduction, which living cells bring about.)
Data set [6] relates to HL-60. The data set is described as follows: Induction of cell death in human HL60 cells at 0.4 uM after 24 hrs in presence of […] BSO by MTT assay. Type of data set: functional, cell-based.
The subject of the next data set is MCF7. The data set is described as follows: Cytotoxicity against human MCF7 cells by MTT assay. Format: functional, cell-based. The settings on record: TDE = time-dependent effect.
For data set [7], the system named is HL-60. The data set is described as follows: Cytotoxicity against human HL60 cells after 48 hrs by MTT assay. Format: functional, cell-based. To be noted: for IC50: HL-60, 48 h.
In data set [8] the test system is HL-60. The data set is described as follows: Induction of ROS generation in human HL60 cells assessed as reduction in intracellular thiols up to 2.5 uM incubated for 12 to 24 hrs by DTNB titration method. Format: functional, cell-based.
The test system of data set [9] is HL-60. The data set is described as follows: Induction of apoptosis in human HL60 cells assessed as nuclear shrinkage at 0.75 to 1.5 uM after 24 hrs by Hoechst 33342 staining-based laser scanning confocal microscopic analysis. Type of data set: functional, cell-based.
A further data set deals with GES1. The data set can be described thus: Cytotoxicity against human GES-1 cells after 48 hrs by MTT assay. Type of data set: cell-based. The settings on record: for IC50: Homo sapiens, GES1, 48 h; for Activity: human, ges1, 48 h.
Data set [10] deals with HL-60. The data set is described as follows: Induction of mitochondrial membrane potential loss in human HL60 cells at 0.75 uM after 24 hrs by JC-1 staining-based flow cytometry (reference value: 28.6%). Type of data set: functional.
Data set [11] relates to HL-60. The data set is described as follows: Induction of cell death in human HL60 cells at 1 to 1.5 uM after 24 hrs in presence of antioxidant lipoic acid by trypan blue assay. Type of data set: functional, cell-based.
In data set [12] the test system is HL-60. The data set is described as follows: Induction of ROS generation in human HL60 cells at 1.5 uM after 24 hrs by DCFH-DA or DHE staining-based fluorescence microscopic analysis. Format: functional, cell-based.
Data set [13] has as its system HL-60. The data set is described as follows: Induction of mitochondrial dysfunction in human HL60 cells assessed as increase in intracellular calcium level at 0.75 to 1.5 uM after 4 to 24 hrs by Fluo-3 AM dye-based flow cytometry. Format: functional, cell-based. (A change in cytosolic calcium serves as a functional read-out for many receptors and channels.)
A further data set relates to Liver. The data set can be described thus: Induction of mitochondrial dysfunction in Wistar rat liver assessed as swelling at 20 uM in presence of calcium related inhibitor EGTA. Format: functional. The settings on record: mitochondria.
The subject of data set [14] is HL-60. The data set is described as follows: Induction of cell death in human HL60 cells at 1 to 1.5 uM after 24 hrs in presence of antioxidant L-ascorbic acid by trypan blue assay. Type of data set: functional, cell-based.
Data set [15] has as its system HL-60. The data set is described as follows: Induction of cell death in human HL60 cells at 0.4 uM after 24 hrs in absence of BSO by MTT assay. Format: functional, cell-based.
The test system of data set [16] is HL-60. The data set is described as follows: Induction of cell death in human HL60 cells assessed as decrease in total GSH levels after 24 hrs by MTT assay. Format: functional, cell-based.
A further data set relates to SGC-7901. The data set is described as follows: Cytotoxicity against human SGC7901 cells by MTT assay. Format: functional, cell-based. To be noted: TDE = time-dependent effect.
In data set [17] the test system is HL-60. The data set is described as follows: Induction of apoptosis in human HL60 cells assessed as condensed nuclei at 0.75 to 1.5 uM after 24 hrs by Hoechst 33342 staining-based laser scanning confocal microscopic analysis. Type of data set: functional, cell-based.
Data set [18] concerns HL-60. The data set is described as follows: Potentiation of H2O2-induced cytotoxicity in human HL60 cells assessed as induction of cell death at 1.5 to 2 uM preincubated for 6 hrs followed by compound washout and subsequent H2O2 addition measured after 18 hrs by MTT assay. Type of data set: functional, cell-based.
The subject of data set [19] is HL-60. The data set can be described thus: Induction of mitochondrial membrane potential loss in human HL60 cells at 0.75 uM after 24 hrs by JC-1 staining-based flow cytometry (reference value: 24.3%). Format: functional.
In data set [20] the test system is HL-60. The data set is described as follows: Induction of mitochondrial membrane potential loss in human HL60 cells at 1.5 uM after 24 hrs by JC-1 staining-based flow cytometry (reference value: 24.3%). Type of data set: functional.

Calls of active or inactive are those of the source. The calls are words filed in the database; no cut-off is given here.

The IC50 is the concentration at which inhibition is half-maximal. A lower IC50 goes with greater potency. Turning to `O=C(Nc1ccc([As]2SCCCS2)cc1)c1ccccc1O`, the result (in the data set on HL-60 [1]; in [2]; with HL-60 [4]; in the data set with HL-60 [11]; in the data set on Liver) was inactive. The Activity in the data set with HL-60 [3] was 71.8%; with HL-60 [5] it was “Tde”; with MCF7 it was “Tde”; in the data set on HL-60 [7], “Dose-dependent effect”; in the data set on GES1, “Dose-dependent effect”; in the data set on HL-60 [10] it was 51.8%. Moreover, the Activity result with HL-60 [16] was “Dose-dependent effect”; with SGC-7901, “Tde”. For the same molecule, the outcome in the data set with HL-60 [6], with HL-60 [8], in the data set with HL-60 [9], in the data set with HL-60 [12], in the data set with HL-60 [13] and in the data set with HL-60 [14] was Active. In addition, the result with HL-60 [15], with HL-60 [17] and in the data set with HL-60 [18] was Active. Further, the IC50 stood at 690 nM with HL-60 [7] and 9070 nM in the data set on GES1.

With `Oc1ccccc1/C=N/c1ccc([As]2SCCCS2)cc1`, the result (with HL-60 [1]; in data set [2]; with HL-60 [4]; with HL-60 [11]; with Liver) was inactive. The Activity is 49.1% with HL-60 [19]; “Tde” in the data set with HL-60 [5]; “Tde” in the data set on MCF7; “Dose-dependent effect” in the data set on HL-60 [7]; 71% in the data set on HL-60 [20]; “Dose-dependent effect” in the data set with GES1. Further, the Activity result in the data set on HL-60 [16] was “Dose-dependent effect”; with SGC-7901 it was “Tde”. Moreover, the result in the data set with HL-60 [6], in the data set with HL-60 [8], in the data set with HL-60 [9], in the data set on HL-60 [12], in the data set with HL-60 [13] and in the data set on HL-60 [14] was Active. The result in the data set on HL-60 [15], in the data set on HL-60 [17] and with HL-60 [18] was Active. Also, the IC50 in the data set with HL-60 [7] was found to be 710 nM; in the data set on GES1, 3550 nM.

The record behind these values is ChEMBL document CHEMBL4138191, “Organic arsenicals target thioredoxin reductase followed by oxidative stress and mitochondrial dysfunction resulting in apoptosis” (Eur J Med Chem, 2018).
